Measurements taken from BindingDB's records for doi:10.7270/Q2T43RJV (Nmmlsc, 2010).

The compounds below were run against Guanine nucleotide-binding protein G(o) subunit alpha (Homo sapiens, UniProt P09471) (assay: RGS4-Galphao interaction regulators, SAR follow-up, biochemical, multiplexed bead assay, additional SAR round (AID 2829)).
Sequence of Guanine nucleotide-binding protein G(o) subunit alpha (P09471 whole entry): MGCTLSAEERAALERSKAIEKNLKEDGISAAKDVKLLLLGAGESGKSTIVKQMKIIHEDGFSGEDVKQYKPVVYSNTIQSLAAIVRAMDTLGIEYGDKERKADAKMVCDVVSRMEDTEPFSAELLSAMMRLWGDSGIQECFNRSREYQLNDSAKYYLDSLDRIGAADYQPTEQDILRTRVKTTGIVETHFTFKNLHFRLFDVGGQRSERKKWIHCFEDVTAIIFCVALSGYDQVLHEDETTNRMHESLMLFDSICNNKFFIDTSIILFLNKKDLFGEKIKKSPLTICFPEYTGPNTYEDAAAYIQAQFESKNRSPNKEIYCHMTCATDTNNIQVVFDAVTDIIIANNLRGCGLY
For `O=C(c1sc2cc([N+](=O)[O-])ccc2c1Cl)N1CCNCC1`, the EC50 was > 30 µM.
`O=C(NCCCN1CCOCC1)c1sc2cc([N+](=O)[O-])ccc2c1Cl` [3-chloranyl-N-(3-morpholin-4-ylpropyl)-6-nitro-1-benzothiophene-2-carboxamide] was tested, and the EC50 was > 30 µM.
In the case of `O=C(NCCCn1ccnc1)c1sc2cc([N+](=O)[O-])ccc2c1Cl` [3-chloro-N-[3-(1-imidazolyl)propyl]-6-nitro-1-benzothiophene-2-carboxamide], the EC50 is reported as > 30 µM.
In the case of `NC(=O)c1sc2cc([N+](=O)[O-])ccc2c1Cl` [KSC-1-100], the EC50 is reported as > 30 µM.
With `Cc1ccc2c(Cl)c(C(=O)NCCCN3CCOCC3)sc2c1` [KUC103874N] the EC50 was > 30 µM.
